How the values were obtained:
[1] = test system: mouse; test: intraperitoneal acute toxicity test in mouse (Test Example 2); format: in vivo, mouse (Slc: ddy male); settings: 14 days observation, five mice per group
Procedure: (§1) Fifty % inhibitory dose (ID50) in Passive Cutaneous Anaphylaxis (PCA) test in rat (Test Example 1) and Minimal Lethal Dose (MLD) in intraperitoneal acute toxicity test in mouse (Test Example 2) were determined for the typical compounds of the present invention as follows:
The intraperitoneal actute toxicity test was carried out using mouse for the chromene derivatives of the present invention. Normal Slc: ddy male 4 weeks mice were preliminarily breeded for a week at a breeding room and those weighing 25 to 27 g were subjected to the test. The test compounds were used by suspending in 0.5% aqueous solution of sodium carboxymethylcellulose. Ten ml/kg was administered intraperitoneally through the right abdomen of the animal using the prescribed needle (five mice per group). The lethal dose was presumed by the observation during 14 days after administration.

[2] = test system: passive cutaneous anaphylaxis by homocytotropic antibody (HTA); test: Passive Cutaneous Anaphylaxis (PCA) test in rat (Test Example 1); format: in vivo, rat (Wistar); settings: 0.5 h, 72 hour PCA, intravenous just before antigen, sacrificed 30 minutes after antigen challenge, read-out: ID50 (fifty % inhibitory dose for the leaked amount of the pigment)
Procedure: as §1
The antiallergic activities of the chromene derivatives of the present invention were tested in passive cutaneous anaphylaxis (hereinafter referred to as "PCA") by homocytotropic antibody (hereinafter referred to as "HTA").
DNP-As(2,4-dinitro phenyl-coupled Ascaris extract) was prepared according to the method by Strejan et al. (J. Immunol. Vol. 98, P 893, (1967)) and by Eisen (J. Amer. Chem. Soc. Vol. 75, P 4593, (1953)) to be used as antigen. Antiserum containing HTA was prepared by the method according to Tada and Okumura (J. Immunol. Vol. 106, P 1002, (1972)) as follows: i.e. spleen was taken out from Wistar female rat weighing 180 to 200 g and several days after 1 mg of DNP-As and 1×10^10 of Bordetella pertussis vaccine were injected into four footpads of the rat to induce senitization. After five days, again 0.5 mg of DNP-As was solely injected into the dorsal muscles. Eight days after priming, blood was taken by paracentesis of aorta under anesthetic condition with ether and the obtained antiserum was stored at -80° C.
Titer of the stored antiserum was determined by 72 hour PCA method in rat as described in the following item (2). The maximal dilution of the antiserum which can give a spot with a diameter of around 5 mm was usually 500 times.
The diluted antiserum (×30) was injected 0.05 ml/site intradermally into the shaved back of normal Wistar rat weighing 140 to 160 g. After 72 hours, 1 ml of physiological saline containing 2 mg of DNP-As and 2.5 mg of Evans blue was injected intravenously.
Test compound was dissolved in 0.5% aqueous solution of KHCO3, which was administered intravenously in an amount of 2 ml/kg just before the administration of the antigen. The animal was sacrificed 30 minutes after antigen challenge and the cutis was peeled off. The intensity of PCA was evaluated for the measurment of the leaked amount of the pigment. The leaked pigment was extracted according to the method by Harada et al. (Jpn. J. Allergol., Vol. 15, P 1, (1966)) and the leaked amount was measured by spectrophotometry. Fifty % inhibitory dose for the leaked amount of the pigment was regarded as ID50 value of the test compound.

[3] = test system: experimental asthma model of animals; test: experimental asthma model of animals; format: in vivo

## O=C(O)COc1cccc2cc(-c3nnn[nH]3)c(=O)oc12 [Compound A, [2-oxo-3-(1H-tetrazole-5-yl)-2H-chromene-8-yloxy]acetic acid]
[1]
  MLD (Minimal Lethal Dose): > 1000 mg/kg
[2]
  ED50: 0.5 mg/kg

## O=C(O)CCCOc1cccc2cc(-c3nnn[nH]3)c(=O)oc12 [Compound B, 4-[2-oxo-3-(1H-tetrazole-5-yl)-2H-chromene-8 yloxy]butyric acid]
[3]
  inhibitory effect in experimental asthma model: inhibitory effect in high degree
[1]
  MLD (Minimal Lethal Dose): > 1600 mg/kg
[2]
  ED50: 0.1 mg/kg

## O=C(O)CCCOc1ccc2oc(=O)c(-c3nnn[nH]3)cc2c1 [Compound C, 4-[2-oxo-3-(1H-tetrazole-5-yl)-2H-chromene-6-yloxy]butyric acid]
[1]
  MLD (Minimal Lethal Dose): > 1500 mg/kg
[2]
  ED50: 0.1 mg/kg

## O=C(O)CCCCCOc1cccc2cc(-c3nnn[nH]3)c(=O)oc12 [Compound D, 6-[2-oxo-3-(1H-tetrazole-5-yl)-2H-chromene-8-yloxy]hexanoic acid]
[1]
  MLD (Minimal Lethal Dose): > 1600 mg/kg
[2]
  ED50: 0.16 mg/kg

## O=C(O)CCCCCOc1ccc2cc(-c3nnn[nH]3)c(=O)oc2c1 [Compound E, 6-[2-oxo-3-(1H-tetrazole-5-yl)-2H-chromene-7-yloxy]hexanoic acid]
[1]
  MLD (Minimal Lethal Dose): > 1500 mg/kg
[2]
  ED50: 0.2 mg/kg

## O=C(O)CCCCCOc1ccc2oc(=O)c(-c3nnn[nH]3)cc2c1 [Compound F, 6-[2-oxo-3-(1H-tetrazole-5-yl)-2H-chromene-6-yloxy]hexanoic acid]
[1]
  MLD (Minimal Lethal Dose): > 1600 mg/kg
[2]
  ED50: 0.16 mg/kg

## O=C(O)CCCCCOc1cccc2oc(=O)c(-c3nnn[nH]3)cc12 [Compound G, 6-[2-oxo-3-(1H-tetrazole-5-yl)-2H-chromene-5-yloxy]hexanoic acid]
[1]
  MLD (Minimal Lethal Dose): > 1500 mg/kg
[2]
  ED50: 0.2 mg/kg
